Literature values in patent publication US20100069397A1, “SEXUAL DYSFUNCTION COMPOUNDS” (Pharmacia AB, priority 2002, published 2010).

Legend:
[1] = dose of 1-3 mg, taken 0.5-1 h before sexual activity; per WO 00/40226
[2] = free base; per European Patent Application No. 0 960 621

solubility in water [2]	SMILES	therapeutic effect in sexual dysfunction [1]
–	CN[C@@H]1Cc2cccc3[nH]c(=O)n(c23)C1.O=C(O)/C=C\C(=O)O [(R)-5,6-dihydro-5-(methylamino)-4H-imidazo[4,5-ij]-quinolin-2(1H)-one (Z)-2-butenedioate (1:1)]	therapeutically effective
extremely low solubility in water	CCCc1nn(C)c2c(=O)[nH]c(-c3cc(S(=O)(=O)N4CCN(C)CC4)ccc3OCC)nc12 [sildenafil]	–
